ChEMBL document CHEMBL1201862, “PubChem BioAssay data set” (2004)
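1) Cells in 96-well plates. 2) Compound, 48 h, 5 concentrations. 3) Linear interpolation between surrounding doses. 4) Unreached endpoint = highest concentration. GI50 is the concentration that inhibits growth by half.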 Activity calls are given as the source filed them. No stated cut-off is given here; in the data, active = GI50 up to about 1.1 µM and inactive = higher.

Key:
Experiment in all cases: inhibition of tumour cell growth, NCI panel, 48 h
786-0 = system: 786-0
CCRF-CEM = system: CCRF-CEM
DLD-1 = system: DLD-1
DMS-273 = system: DMS-273
HCC 2998 = system: HCC 2998
HCT-116 = system: HCT-116
HL-60 = system: HL-60
HOP-62 = system: HOP-62
K562 = system: K562
KM-20L2 = system: KM-20L2
LOX IMVI = system: LOX IMVI
LXFL 529 = system: LXFL 529
M14 = system: M14
MOLT-4 = system: MOLT-4
NCI-H226 = system: NCI-H226
NCI-H23 = system: NCI-H23
NCI-H460 = system: NCI-H460
NCI-H522 = system: NCI-H522
OVCAR-4 = system: OVCAR-4
RPMI-8226 = system: RPMI-8226
RXF 393 = system: RXF 393
SF-539 = system: SF-539
SK-MEL-28 = system: SK-MEL-28
SN12C = system: SN12C
SNB-19 = system: SNB-19
SNB-75 = system: SNB-75
SNB-78 = system: SNB-78
U-251 = system: U-251
A549 = system: A549
ACHN = system: ACHN
CAKI-1 = system: CAKI-1
COLO 205 = system: COLO 205
DMS-114 = system: DMS-114
EKVX = system: EKVX
HCT-15 = system: HCT-15
HT-29 = system: HT-29
IGROV-1 = system: IGROV-1
KM12 = system: KM12
Malme-3M = system: Malme-3M
OVCAR-3 = system: OVCAR-3
OVCAR-5 = system: OVCAR-5
OVCAR-8 = system: OVCAR-8
SF-268 = system: SF-268
SF-295 = system: SF-295
SK-MEL-2 = system: SK-MEL-2
SK-MEL-5 = system: SK-MEL-5
SK-OV-3 = system: SK-OV-3
SR = system: SR
SW-620 = system: SW-620
UACC-257 = system: UACC-257
UACC-62 = system: UACC-62
UO-31 = system: UO-31
A498 = system: A498
BT-549 = system: BT-549
DU-145 = system: DU-145
HOP-92 = system: HOP-92
Hs-578T = system: Hs-578T
MCF7 = system: MCF7
MDA-MB-231 = system: MDA-MB-231
MDA-MB-435 = system: MDA-MB-435
MDA-N = system: MDA-N
NCI/ADR-RES = system: NCI/ADR-RES
PC-3 = system: PC-3
T47D = system: T47D
TK-10 = system: TK-10

SMILES: Cc1cnc(-c2ccccc2)o1
- GI50 (786-0): > 100 µM (inactive)
- GI50 (CCRF-CEM): > 100 µM (inactive)
- GI50 (DLD-1): > 100 µM (inactive)
- GI50 (DMS-273): 52.6 µM (inactive)
- GI50 (HCC 2998): > 100 µM (inactive)
- GI50 (HCT-116): > 100 µM (inactive)
- GI50 (HL-60): > 100 µM (inactive)
- GI50 (HOP-62): > 100 µM (inactive)
- GI50 (K562): > 100 µM (inactive)
- GI50 (KM-20L2): > 100 µM (inactive)
- GI50 (LOX IMVI): > 100 µM (inactive)
- GI50 (LXFL 529): > 100 µM (inactive)
- GI50 (M14): > 100 µM (inactive)
- GI50 (MOLT-4): > 100 µM (inactive)
- GI50 (NCI-H226): > 100 µM (inactive)
- GI50 (NCI-H23): > 100 µM (inactive)
- GI50 (NCI-H460): > 100 µM (inactive)
- GI50 (NCI-H522): > 100 µM (inactive)
- GI50 (OVCAR-4): > 100 µM (inactive)
- GI50 (RPMI-8226): > 100 µM (inactive)
- GI50 (RXF 393): > 100 µM (inactive)
- GI50 (SF-539): > 100 µM (inactive)
- GI50 (SK-MEL-28): > 100 µM (inactive)
- GI50 (SN12C): > 10 µM (inactive)
- GI50 (SNB-19): > 100 µM (inactive)
- GI50 (SNB-75): > 100 µM (inactive)
- GI50 (SNB-78): > 100 µM (inactive)
- GI50 (U-251): > 100 µM (inactive)

SMILES: O=c1[nH]c2nc3ccccc3c(=O)n2nc1Cc1ccccc1
- GI50 (786-0): > 100 µM (inactive)
- GI50 (A549): > 100 µM (inactive)
- GI50 (ACHN): > 100 µM (inactive)
- GI50 (CAKI-1): > 100 µM (inactive)
- GI50 (CCRF-CEM): > 100 µM (inactive)
- GI50 (COLO 205): > 100 µM (inactive)
- GI50 (DLD-1): > 100 µM (inactive)
- GI50 (DMS-114): > 100 µM (inactive)
- GI50 (DMS-273): > 100 µM (inactive)
- GI50 (EKVX): > 100 µM (inactive)
- GI50 (HCC 2998): > 100 µM (inactive)
- GI50 (HCT-116): > 100 µM (inactive)
- GI50 (HCT-15): > 100 µM
- GI50 (HOP-62): 16.3 µM (inactive)
- GI50 (HT-29): > 100 µM (inactive)
- GI50 (IGROV-1): 45.1 µM (inactive)
- GI50 (K562): > 100 µM (inactive)
- GI50 (KM-20L2): > 100 µM (inactive)
- GI50 (KM12): > 100 µM (inactive)
- GI50 (LOX IMVI): > 100 µM (inactive)
- GI50 (LXFL 529): > 100 µM (inactive)
- GI50 (M14): > 100 µM (inactive)
- GI50 (MOLT-4): > 100 µM (inactive)
- GI50 (Malme-3M): > 100 µM (inactive)
- GI50 (NCI-H226): 94.6 µM (inactive)
- GI50 (NCI-H23): > 100 µM (inactive)
- GI50 (NCI-H460): > 100 µM (inactive)
- GI50 (NCI-H522): 98.2 µM (inactive)
- GI50 (OVCAR-3): 44.2 µM (inactive)
- GI50 (OVCAR-4): 28.3 µM (inactive)
- GI50 (OVCAR-5): > 100 µM (inactive)
- GI50 (OVCAR-8): > 100 µM (inactive)
- GI50 (RPMI-8226): > 100 µM (inactive)
- GI50 (SF-268): > 100 µM (inactive)
- GI50 (SF-295): > 100 µM (inactive)
- GI50 (SF-539): > 100 µM (inactive)
- GI50 (SK-MEL-28): > 100 µM (inactive)
- GI50 (SK-MEL-2): > 100 µM (inactive)
- GI50 (SK-MEL-5): > 100 µM (inactive)
- GI50 (SK-OV-3): 84.7 µM (inactive)
- GI50 (SN12C): > 100 µM (inactive)
- GI50 (SNB-19): > 100 µM (inactive)
- GI50 (SNB-75): > 100 µM (inactive)
- GI50 (SNB-78): > 100 µM (inactive)
- GI50 (SR): > 100 µM (inactive)
- GI50 (SW-620): > 100 µM (inactive)
- GI50 (U-251): > 100 µM (inactive)
- GI50 (UACC-257): > 100 µM (inactive)
- GI50 (UACC-62): > 100 µM (inactive)
- GI50 (UO-31): 56.8 µM (inactive)

SMILES: C=C(Cl)/C(=C/Cl)CCC(Br)C(C)(C)Cl.C=C(Cl)/C(=C\Cl)CCC(Br)C(C)(C)Cl (configuration not stated)
- GI50 (786-0): > 10 µM (inactive)
- GI50 (A498): > 10 µM (inactive)
- GI50 (A549): > 10 µM (inactive)
- GI50 (ACHN): > 10 µM (inactive)
- GI50 (BT-549): > 10 µM (inactive)
- GI50 (CAKI-1): > 10 µM (inactive)
- GI50 (CCRF-CEM): 2.66 µM (inactive)
- GI50 (COLO 205): > 10 µM (inactive)
- GI50 (DU-145): > 10 µM (inactive)
- GI50 (EKVX): > 10 µM (inactive)
- GI50 (HCC 2998): > 10 µM (inactive)
- GI50 (HCT-116): > 10 µM (inactive)
- GI50 (HCT-15): > 10 µM
- GI50 (HL-60): 3.56 µM (inactive)
- GI50 (HOP-62): > 10 µM (inactive)
- GI50 (HOP-92): > 10 µM (inactive)
- GI50 (HT-29): > 10 µM (inactive)
- GI50 (Hs-578T): > 10 µM (inactive)
- GI50 (IGROV-1): > 10 µM (inactive)
- GI50 (K562): 5.43 µM (inactive)
- GI50 (KM12): > 10 µM (inactive)
- GI50 (LOX IMVI): > 10 µM (inactive)
- GI50 (M14): > 10 µM (inactive)
- GI50 (MCF7): > 10 µM (inactive)
- GI50 (MDA-MB-231): > 10 µM (inactive)
- GI50 (MDA-MB-435): > 10 µM (inactive)
- GI50 (MDA-N): > 10 µM (inactive)
- GI50 (MOLT-4): 3.1 µM (inactive)
- GI50 (Malme-3M): > 10 µM (inactive)
- GI50 (NCI-H226): > 10 µM (inactive)
- GI50 (NCI-H23): > 10 µM (inactive)
- GI50 (NCI-H460): > 10 µM (inactive)
- GI50 (NCI-H522): 9.77 µM (inactive)
- GI50 (NCI/ADR-RES): > 10 µM (inactive)
- GI50 (OVCAR-3): > 10 µM (inactive)
- GI50 (OVCAR-4): > 10 µM (inactive)
- GI50 (OVCAR-5): > 10 µM (inactive)
- GI50 (OVCAR-8): > 10 µM (inactive)
- GI50 (PC-3): > 10 µM (inactive)
- GI50 (RPMI-8226): > 10 µM (inactive)
- GI50 (RXF 393): > 10 µM (inactive)
- GI50 (SF-268): > 10 µM (inactive)
- GI50 (SF-295): > 10 µM (inactive)
- GI50 (SF-539): > 10 µM (inactive)
- GI50 (SK-MEL-28): > 10 µM (inactive)
- GI50 (SK-MEL-2): > 10 µM (inactive)
- GI50 (SK-MEL-5): > 10 µM (inactive)
- GI50 (SK-OV-3): > 10 µM (inactive)
- GI50 (SN12C): > 10 µM (inactive)
- GI50 (SNB-19): > 10 µM (inactive)
- GI50 (SNB-75): > 10 µM (inactive)
- GI50 (SR): 5.45 µM (inactive)
- GI50 (SW-620): > 10 µM (inactive)
- GI50 (T47D): > 10 µM (inactive)
- GI50 (TK-10): > 10 µM (inactive)
- GI50 (U-251): > 10 µM (inactive)
- GI50 (UACC-257): > 10 µM (inactive)
- GI50 (UACC-62): > 10 µM (inactive)
- GI50 (UO-31): > 10 µM (inactive)
